# Results published in US9617244B2, “Antibacterial quinoline derivatives” (JANSSEN PHARMACEUTICA NV, priority 2012, dated 2017).
# Columns and labels:
# [1] = tested on: Mycobacterium smegmatis (ATCC607); assay: In-vitro anti-bacterial activity against strain M. Smegmatis ATCC607; assay type: cell-based; details: 90% inhibitory concentration for bacterial growth, Alamar Blue fluorescence; for IC90 MSM 607: 48 hours; for IC90: Mycolicibacterium smegmatis, ATCC607, 48 h, read-out: IC90 MSM 607
# Procedure, shortened: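 IC90 (μg/ml) derived from Alamar Blue fluorescence (530/590 nm) after 48 h growth at 37 °C under 5% CO2. About 250 CFU per well in Mueller-Hinton broth faced five-fold serial compound dilutions in BSA-containing wells.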
# [2] = tested on: Staphylococcus aureus (ATCC29213); assay: In-vitro anti-bacterial activity, microtitre plate assay, IC90 determination (non-mycobacterial strains); assay type: cell-based; details: 90% inhibitory concentration for bacterial growth, resazurin fluorescence; for IC90 STA B29213: 24 hours; for IC90: Staphylococcus aureus, ATCC29213, 24 h, read-out: IC90 STA B29213
# Procedure, shortened: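 Growth inhibition measured fluorometrically with resazurin (530/590 nm) after overnight 37 °C incubation under normal atmosphere. Bacteria added at roughly 100 TCID50 per well in Mueller-Hinton broth to five-fold compound dilution series; IC90 reported in μg/ml.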
SMILES,IC90 MSM 607 [1] [µg/mL],melting point [°C],IC90 STA B29213 [2] [µg/mL],IC90 [1] [µg/mL],IC90 [2] [µg/mL]
COc1nc2ccc(SC)cc2cc1C(c1ccccc1)C1(O)CCNC(c2ccc(F)cc2C)C1 (stereo not drawn) [Compound 197],1.59,138,1.59,,
COc1nc2ccc(S(C)(=O)=O)cc2cc1C(c1ccc(Cl)cc1)C1(O)CCNC(c2ccc(F)cc2C)C1 (stereo not drawn) [Compound 200],5.69,187,5.69,,
COc1nc2ccc(Br)cc2cc1C(c1ccc(Cl)cc1)C1(O)CCNC(Cc2ccc(F)cc2)C1 (stereo not drawn) [Compound 355],1.43,190,3.60,,
COc1nc2ccc(Cl)cc2cc1C(c1ccc(Cl)cc1)C1(O)CCNC(CO)C1 (stereo not drawn) [Compound 12],,135,,2.82,7.09
CSc1ccc2[nH]c(=O)c(C(c3ccccc3)C3(O)CCNC(c4ccc(F)cc4C)C3)cc2c1 (stereo not drawn) [Compound 181],9.75,173,6.15,,
CS(=O)(=O)c1ccc2[nH]c(=O)c(C(c3ccccc3)C3(O)CCNC(Cc4ccccc4)C3)cc2c1 (stereo not drawn) [Compound 155],>12.63,194,>12.63,,
"COc1nc2ccc(Cl)cc2cc1C(c1ccc(Cl)cc1)C1(O)CCNC(c2ccc(F)cc2C)C1 (single isomer, unassigned) [Compound 3]",0.83,146,0.83,,
COc1nc2ccc(SC)cc2cc1C(c1ccccc1)C1(O)CCNC(Cc2ccccc2)C1 (stereo not drawn) [Compound 142],2.16,190,3.06,,
COc1nc2ccc(Cl)cc2cc1C(c1ccc(Cl)cc1)C1(O)CCNCC1F (stereo not drawn) [Compound 453],2.75,210,,,5.48
COc1nc2ccc(S(=O)(=O)C(C)C)cc2cc1C(c1ccc(Cl)cc1)C1(O)CCNC(Cc2ccccc2)C1 (stereo not drawn) [Compound 387],7.29,204,14.55,,
COc1nc2ccc(Br)cc2cc1C(c1cccc(Cl)c1)C1(O)CCNC(Cc2ccccc2)C1 (stereo not drawn) [Compound 34],2.20,152,3.48,,
COc1nc2ccc(S(C)(=O)=O)cc2cc1C(c1ccccc1)C1(O)CCNC(c2ccc(F)cc2C)C1 (stereo not drawn) [Compound 186],8.47,166,9.51,,
COc1nc2ccc(F)cc2cc1C(c1ccc(Cl)cc1)C1(O)CCNC(Cc2ccccc2)C1 (stereo not drawn) [Compound 52],0.62,176,1.23,,
CS(=O)(=O)c1ccc2[nH]c(=O)c(C(c3ccccc3)C3(O)CCNC(Cc4ccccc4)C3)cc2c1 (stereo not drawn) [Compound 153],,183,,> 12.6,> 12.6
COc1nc2ccc(Br)cc2cc1C(c1ccc(Cl)cc1)C1(O)CCNC(c2ccc(F)cc2C)C1 (stereo not drawn) [Compound 105],0.90,149,1.80,,
COc1nc2ccc(Br)cc2cc1C(c1ccccc1)C1(O)CCNC(c2ccc(F)cc2C)C1 (stereo not drawn) [Compound 193],5.35,147,5.35,,
COc1nc2ccc(S(C)(=O)=O)cc2cc1C(c1ccc(Cl)cc1)C1(O)CCNC(c2ccc(F)cc2C)C1 (stereo not drawn) [Compound 202],2.27,186,1.80,,

SMILES,IC90 MSM 607 [1] [µg/mL],melting point [°C],IC90 STA B29213 [2] [µg/mL],IC90 [1] [µg/mL],IC90 [2] [µg/mL]
COc1nc2ccc(Br)cc2cc1C(c1ccc(Cl)cc1)C1(O)CCNC(c2ccc(F)cc2C)C1 (stereo not drawn) [Compound 104],,160,,1.14,1.8
COc1nc2ccc(SC)cc2cc1C(c1ccc(Cl)cc1)C1(O)CCNC(Cc2ccc(F)cc2)C1 (stereo not drawn) [Compound 262],3.39,94,7.59,,
COc1nc2ccc(Br)cc2cc1C(c1ccccc1)C1(O)CCNC(c2ccc(F)cc2C)C1 (stereo not drawn) [Compound 249],1.07,178,1.69,,
C=CC1CC(O)(C(c2ccc(Cl)cc2)c2cc3cc(Br)ccc3nc2OC)CCN1 (stereo not drawn) [Compound 372],3.08,194,6.14,,
COc1nc2ccc(S(C)(=O)=O)cc2cc1C(c1ccc(Cl)cc1)C1(O)CCNC(c2ccc(F)cc2C)C1 (stereo not drawn) [Compound 217],0.90,169,1.27,,
CS(=O)(=O)c1ccc2[nH]c(=O)c(C(c3ccccc3)C3(O)CCNC(Cc4ccccc4)C3)cc2c1 (stereo not drawn) [Compound 154],>12.63,250,>12.63,,
CS(=O)(=O)c1ccc2[nH]c(=O)c(C(c3ccccc3)C3(O)CCNC(Cc4ccccc4)C3)cc2c1 (stereo not drawn) [Compound 156],11.25,254,>12.63,,
C=CC1CC(O)(C(c2ccc(Cl)cc2)c2cc3cc(Br)ccc3nc2OC)CCN1 (stereo not drawn) [Compound 371],2.44,158,,,3.08
C=CCC1CNCCC1(O)C(c1ccc(Cl)cc1)c1cc2cc(Br)ccc2nc1OC (stereo not drawn) [Compound 393],6.32,159 to 161,10.01,,
COc1nc2ccc(SC)cc2cc1C(c1ccc(Cl)cc1)C1(O)CCNC(c2ccc(F)cc2C)C1 (stereo not drawn) [Compound 275],1.35,140,0.85,,
COc1nc2ccc(S(C)(=O)=O)cc2cc1C(c1cccc(Cl)c1)C1(O)CCNC(c2ccc(F)cc2C)C1 (stereo not drawn) [Compound 47],5.69,174,14.30,,
COc1nc2ccc(Br)cc2cc1C(c1ccccc1)C1(O)CCNC(c2ccc(F)cc2C)C1 (stereo not drawn) [Compound 61],0.85,141,1.69,,
COc1nc2ccc(S(C)(=O)=O)cc2cc1C(c1ccc(Cl)cc1)C1(O)CCNC(c2ccc(F)cc2C)C1 (stereo not drawn) [Compound 219],1.80,156,3.59,,
COc1nc2ccc(SC)cc2cc1[C@@H](c1ccc(Cl)cc1)C1(O)CCNCC1(C)C (stereo in doubt) [Compound 62],,212,,4.57,5.75
COc1nc2ccc(SC)cc2cc1C(c1ccc(Cl)cc1)C1(O)CCNC(CC2CCCCC2)C1 (stereo not drawn) [Compound 287],,185,,2.63,3.31
COc1nc2ccc(F)cc2cc1C(c1ccc(SC)cc1)C1(O)CCNC(c2ccc(F)cc2C)C1 (stereo not drawn) [Compound 406],2.61,206,,,3.29
COc1nc2ccc(Cl)cc2cc1C(c1ccc(Cl)cc1)C1(O)CCNCC1Cc1ccccn1 (stereo not drawn) [Compound 434],3.21,197,3.21,,
